Experiments:
Assay in all cases: cells
Conditions in all cases: Homo sapiens
DSH1 = format: functional, cell-based
Description: SANGER: Inhibition of human DSH1 cell growth in a cell viability assay.

A388 = format: functional, cell-based
Description: SANGER: Inhibition of human A388 cell growth in a cell viability assay.

OCUB-M = format: functional, cell-based
Description: SANGER: Inhibition of human OCUB-M cell growth in a cell viability assay.

KS-1 = format: functional, cell-based
Description: SANGER: Inhibition of human KS-1 cell growth in a cell viability assay.

CTV-1 = format: functional, cell-based
Description: SANGER: Inhibition of human CTV-1 cell growth in a cell viability assay.

A498 = format: functional, cell-based
Description: SANGER: Inhibition of human A498 cell growth in a cell viability assay.

RH-1 = format: functional, cell-based
Description: SANGER: Inhibition of human RH-1 cell growth in a cell viability assay.

LB831-BLC = format: functional, cell-based
Description: SANGER: Inhibition of human LB831-BLC cell growth in a cell viability assay.

EW-1 = format: functional, cell-based
Description: SANGER: Inhibition of human EW-1 cell growth in a cell viability assay.

TE-6 = format: functional, cell-based
Description: SANGER: Inhibition of human TE-6 cell growth in a cell viability assay.

ES5 = format: functional, cell-based
Description: SANGER: Inhibition of human ES5 cell growth in a cell viability assay.

8-MG-BA = format: functional, cell-based
Description: SANGER: Inhibition of human 8-MG-BA cell growth in a cell viability assay.

SK-UT-1 = format: functional, cell-based
Description: SANGER: Inhibition of human SK-UT-1 cell growth in a cell viability assay.

KE-37 = format: functional, cell-based
Description: SANGER: Inhibition of human KE-37 cell growth in a cell viability assay.

TE-10 = format: functional, cell-based
Description: SANGER: Inhibition of human TE-10 cell growth in a cell viability assay.

CCRF-CEM = format: functional, cell-based
Description: SANGER: Inhibition of human CCRF-CEM cell growth in a cell viability assay.

COR-L88 = format: functional, cell-based
Description: SANGER: Inhibition of human COR-L88 cell growth in a cell viability assay.

DOHH-2 = format: functional, cell-based
Description: SANGER: Inhibition of human DOHH-2 cell growth in a cell viability assay.

IST-MEL1 = format: functional, cell-based
Description: SANGER: Inhibition of human IST-MEL1 cell growth in a cell viability assay.

MOLT-16 = format: functional, cell-based
Description: SANGER: Inhibition of human MOLT-16 cell growth in a cell viability assay.

KM12 = format: functional, cell-based
Description: SANGER: Inhibition of human KM12 cell growth in a cell viability assay.

HuTu80 = format: functional, cell-based, HUTU-80
Description: SANGER: Inhibition of human HUTU-80 cell growth in a cell viability assay.

NCI-H1304 = format: functional, cell-based
Description: SANGER: Inhibition of human NCI-H1304 cell growth in a cell viability assay.

NCI-H82 = format: functional, cell-based
Description: SANGER: Inhibition of human NCI-H82 cell growth in a cell viability assay.

JAR = format: functional, cell-based
Description: SANGER: Inhibition of human JAR cell growth in a cell viability assay.

LB1047-RCC = format: functional, cell-based
Description: SANGER: Inhibition of human LB1047-RCC cell growth in a cell viability assay.

MFM-223 = format: functional, cell-based
Description: SANGER: Inhibition of human MFM-223 cell growth in a cell viability assay.

C2BBe1 = format: functional, cell-based
Description: SANGER: Inhibition of human C2BBe1 cell growth in a cell viability assay.

SK-LMS-1 = format: functional, cell-based
Description: SANGER: Inhibition of human SK-LMS-1 cell growth in a cell viability assay.

KM-H2 = format: functional, cell-based
Description: SANGER: Inhibition of human KM-H2 cell growth in a cell viability assay.

SCH = format: functional, cell-based
Description: SANGER: Inhibition of human SCH cell growth in a cell viability assay.

A3-KAW = format: functional, cell-based
Description: SANGER: Inhibition of human A3-KAW cell growth in a cell viability assay.

HL-60 = format: functional, cell-based
Description: SANGER: Inhibition of human HL-60 cell growth in a cell viability assay.

Mo = format: functional, cell-based
Description: SANGER: Inhibition of human Mo-T cell growth in a cell viability assay.

NTERA-2-cl-D1 = format: functional, cell-based
Description: SANGER: Inhibition of human NTERA-S-cl-D1 cell growth in a cell viability assay.

BV-173 = format: functional, cell-based
Description: SANGER: Inhibition of human BV-173 cell growth in a cell viability assay.

KMOE-2 = format: functional, cell-based
Description: SANGER: Inhibition of human KMOE-2 cell growth in a cell viability assay.

MN-60 = format: functional, cell-based
Description: SANGER: Inhibition of human MN-60 cell growth in a cell viability assay.

ETK-1 = format: functional, cell-based
Description: SANGER: Inhibition of human ETK-1 cell growth in a cell viability assay.

BT-474 = format: functional, cell-based
Description: SANGER: Inhibition of human BT-474 cell growth in a cell viability assay.

A704 = format: functional, cell-based
Description: SANGER: Inhibition of human A704 cell growth in a cell viability assay.

NOMO-1 = format: functional, cell-based
Description: SANGER: Inhibition of human NOMO-1 cell growth in a cell viability assay.

L-428 = format: functional, cell-based
Description: SANGER: Inhibition of human L-428 cell growth in a cell viability assay.

COLO-824 = format: functional, cell-based
Description: SANGER: Inhibition of human COLO-824 cell growth in a cell viability assay.

KNS-42 = format: functional, cell-based
Description: SANGER: Inhibition of human KNS-42 cell growth in a cell viability assay.

MHH-NB-11 = format: functional, cell-based
Description: SANGER: Inhibition of human MHH-NB-11 cell growth in a cell viability assay.

TE-11 = format: functional, cell-based
Description: SANGER: Inhibition of human TE-11 cell growth in a cell viability assay.

KARPAS-45 = format: functional, cell-based
Description: SANGER: Inhibition of human KARPAS-45 cell growth in a cell viability assay.

LXF-289 cell line = format: functional, cell-based
Description: SANGER: Inhibition of human LXF-289 cell growth in a cell viability assay.

GT3TKB = format: functional, cell-based
Description: SANGER: Inhibition of human GT3TKB cell growth in a cell viability assay.

HEL = format: functional, cell-based
Description: SANGER: Inhibition of human HEL cell growth in a cell viability assay.

MEG-01 = format: functional, cell-based
Description: SANGER: Inhibition of human MEG-01 cell growth in a cell viability assay.

COLO-684 = format: functional, cell-based
Description: SANGER: Inhibition of human COLO-684 cell growth in a cell viability assay.

BB49-HNC = format: functional, cell-based
Description: SANGER: Inhibition of human BB49-HNC cell growth in a cell viability assay.

D-263MG = format: functional, cell-based
Description: SANGER: Inhibition of human D-263MG cell growth in a cell viability assay.

LNCaP-Clone-FGC = format: functional, cell-based
Description: SANGER: Inhibition of human LNCaP-Clone-FGC cell growth in a cell viability assay.

MMAC-SF = format: functional, cell-based
Description: SANGER: Inhibition of human MMAC-SF cell growth in a cell viability assay.

C8166 = format: functional, cell-based
Description: SANGER: Inhibition of human C8166 cell growth in a cell viability assay.

RCC10RGB = format: functional, cell-based
Description: SANGER: Inhibition of human RCC10RGB cell growth in a cell viability assay.

ES4 = format: functional, cell-based
Description: SANGER: Inhibition of human ES4 cell growth in a cell viability assay.

SNU-5 = format: functional, cell-based
Description: SANGER: Inhibition of human NCI-SNU-5 cell growth in a cell viability assay.

BE-13 = format: functional, cell-based
Description: SANGER: Inhibition of human BE-13 cell growth in a cell viability assay.

OS-RC-2 = format: functional, cell-based
Description: SANGER: Inhibition of human OS-RC-2 cell growth in a cell viability assay.

KY821 = format: functional, cell-based
Description: SANGER: Inhibition of human KY821 cell growth in a cell viability assay.

LAMA-84 = format: functional, cell-based
Description: SANGER: Inhibition of human LAMA-84 cell growth in a cell viability assay.

EW-13 = format: functional, cell-based
Description: SANGER: Inhibition of human EW-13 cell growth in a cell viability assay.

## CO[C@@]12[C@H](COC(N)=O)C3=C(C(=O)C(C)=C(N)C3=O)N1C[C@@H]1N[C@@H]12 [MITOMYCIN]
DSH1
  IC50: 96.5 nM
A388
  IC50: 207 nM
OCUB-M
  IC50: 103 nM
KS-1
  IC50: 364 nM
CTV-1
  IC50: 18.7 nM
A498
  IC50: > 16000 nM
RH-1
  IC50: 49.6 nM
LB831-BLC
  IC50: 816 nM
EW-1
  IC50: 88.1 nM
TE-6
  IC50: 894 nM
ES5
  IC50: 102 nM
8-MG-BA
  IC50: 104 nM
SK-UT-1
  IC50: 82.8 nM
KE-37
  IC50: < 62.5 nM
TE-10
  IC50: 72.6 nM
CCRF-CEM
  IC50: 61.7 nM
COR-L88
  IC50: 319 nM
DOHH-2
  IC50: 93.8 nM
IST-MEL1
  IC50: < 62.5 nM
MOLT-16
  IC50: 585 nM
KM12
  IC50: 1080 nM
HuTu80
  IC50: < 62.5 nM
NCI-H1304
  IC50: 375 nM
NCI-H82
  IC50: 2800 nM
JAR
  IC50: 4560 nM
LB1047-RCC
  IC50: < 62.5 nM
MFM-223
  IC50: 10400 nM
C2BBe1
  IC50: 9280 nM
SK-LMS-1
  IC50: 439 nM
KM-H2
  IC50: 130 nM
SCH
  IC50: > 16000 nM
A3-KAW
  IC50: 35 nM
HL-60
  IC50: 106 nM
Mo
  IC50: 8910 nM
NTERA-2-cl-D1
  IC50: < 62.5 nM
BV-173
  IC50: < 62.5 nM
KMOE-2
  IC50: 1620 nM
MN-60
  IC50: 1260 nM
ETK-1
  IC50: 108 nM
BT-474
  IC50: 2620 nM
A704
  IC50: 2380 nM
NOMO-1
  IC50: 151 nM
L-428
  IC50: 1160 nM
COLO-824
  IC50: 1440 nM
KNS-42
  IC50: 1090 nM
MHH-NB-11
  IC50: 193 nM
TE-11
  IC50: 91.8 nM
KARPAS-45
  IC50: 2270 nM
LXF-289 cell line
  IC50: 55.4 nM
GT3TKB
  IC50: 318 nM
HEL
  IC50: 35.8 nM
MEG-01
  IC50: 683 nM
COLO-684
  IC50: 799 nM
BB49-HNC
  IC50: 353 nM
D-263MG
  IC50: 540 nM
LNCaP-Clone-FGC
  IC50: 450 nM
MMAC-SF
  IC50: 1010 nM
C8166
  IC50: 932 nM
RCC10RGB
  IC50: 1350 nM
ES4
  IC50: < 62.5 nM
SNU-5
  IC50: 141 nM
BE-13
  IC50: < 62.5 nM
OS-RC-2
  IC50: 264 nM
KY821
  IC50: 1650 nM
LAMA-84
  IC50: 642 nM
EW-13
  IC50: 52.5 nM

## CC(C)=CC[C@@H](O)C1=CC(=O)c2c(O)ccc(O)c2C1=O [SHIKONIN]
DSH1
  IC50: 10600 nM
A388
  IC50: 867 nM
OCUB-M
  IC50: 865 nM
KS-1
  IC50: 41.5 nM
CTV-1
  IC50: > 16000 nM
A498
  IC50: 81.9 nM
RH-1
  IC50: 720 nM
LB831-BLC
  IC50: 1920 nM
EW-1
  IC50: 844 nM
TE-6
  IC50: 2970 nM
ES5
  IC50: 2630 nM
8-MG-BA
  IC50: 85.6 nM
SK-UT-1
  IC50: < 62.5 nM
KE-37
  IC50: 244 nM
TE-10
  IC50: 986 nM
CCRF-CEM
  IC50: 567 nM
COR-L88
  IC50: > 16000 nM
DOHH-2
  IC50: 706 nM
IST-MEL1
  IC50: 15000 nM
MOLT-16
  IC50: 2760 nM
KM12
  IC50: 740 nM
HuTu80
  IC50: 370 nM
NCI-H1304
  IC50: > 16000 nM
NCI-H82
  IC50: > 16000 nM
JAR
  IC50: 3260 nM
LB1047-RCC
  IC50: 302 nM
MFM-223
  IC50: 899 nM
C2BBe1
  IC50: 756 nM
SK-LMS-1
  IC50: 108 nM
KM-H2
  IC50: 1040 nM
SCH
  IC50: > 16000 nM
A3-KAW
  IC50: 2140 nM
HL-60
  IC50: 1920 nM
Mo
  IC50: 820 nM
NTERA-2-cl-D1
  IC50: 144 nM
BV-173
  IC50: 436 nM
KMOE-2
  IC50: 1240 nM
MN-60
  IC50: 348 nM
ETK-1
  IC50: 2450 nM
BT-474
  IC50: 208 nM
A704
  IC50: 2700 nM
NOMO-1
  IC50: 1160 nM
L-428
  IC50: 1210 nM
COLO-824
  IC50: 715 nM
KNS-42
  IC50: > 16000 nM
MHH-NB-11
  IC50: 486 nM
TE-11
  IC50: 4010 nM
KARPAS-45
  IC50: 9990 nM
LXF-289 cell line
  IC50: 3270 nM
GT3TKB
  IC50: 346 nM
HEL
  IC50: 2040 nM
MEG-01
  IC50: 451 nM
COLO-684
  IC50: 401 nM
BB49-HNC
  IC50: > 16000 nM
D-263MG
  IC50: 2230 nM
LNCaP-Clone-FGC
  IC50: > 16000 nM
MMAC-SF
  IC50: 752 nM
C8166
  IC50: 408 nM
RCC10RGB
  IC50: 1560 nM
ES4
  IC50: 4630 nM
SNU-5
  IC50: 9540 nM
BE-13
  IC50: 1200 nM
OS-RC-2
  IC50: 314 nM
KY821
  IC50: 747 nM
LAMA-84
  IC50: 1210 nM
EW-13
  IC50: 267 nM

Source: ChEMBL document CHEMBL1201861, “Genomics of Drug Sensitity in Cancer screening data, Wellcome Trust Sanger Institute”
